Where a name gives a salt, the structure may show the parent alone.

As usually defined, the IC50 is the concentration needed to halve the response being measured. Low readings indicate higher potency, high ones lower potency.

The target of this assay is Proton Pump (H^+/K^+-ATPase) (Sus scrofa, UniProt P19156). The assay is described as follows: Inhibitory effects on proton pump (H^+/K^+-ATPase) activity. The class given is biochemical. As to conditions: hog gastric vesicles; K^+ stimulated H^+/K^+-ATPase activity; 30 minutes at 37° C.
Chain of Proton Pump (H^+/K^+-ATPase) (P19156 2-1034 limits assumed): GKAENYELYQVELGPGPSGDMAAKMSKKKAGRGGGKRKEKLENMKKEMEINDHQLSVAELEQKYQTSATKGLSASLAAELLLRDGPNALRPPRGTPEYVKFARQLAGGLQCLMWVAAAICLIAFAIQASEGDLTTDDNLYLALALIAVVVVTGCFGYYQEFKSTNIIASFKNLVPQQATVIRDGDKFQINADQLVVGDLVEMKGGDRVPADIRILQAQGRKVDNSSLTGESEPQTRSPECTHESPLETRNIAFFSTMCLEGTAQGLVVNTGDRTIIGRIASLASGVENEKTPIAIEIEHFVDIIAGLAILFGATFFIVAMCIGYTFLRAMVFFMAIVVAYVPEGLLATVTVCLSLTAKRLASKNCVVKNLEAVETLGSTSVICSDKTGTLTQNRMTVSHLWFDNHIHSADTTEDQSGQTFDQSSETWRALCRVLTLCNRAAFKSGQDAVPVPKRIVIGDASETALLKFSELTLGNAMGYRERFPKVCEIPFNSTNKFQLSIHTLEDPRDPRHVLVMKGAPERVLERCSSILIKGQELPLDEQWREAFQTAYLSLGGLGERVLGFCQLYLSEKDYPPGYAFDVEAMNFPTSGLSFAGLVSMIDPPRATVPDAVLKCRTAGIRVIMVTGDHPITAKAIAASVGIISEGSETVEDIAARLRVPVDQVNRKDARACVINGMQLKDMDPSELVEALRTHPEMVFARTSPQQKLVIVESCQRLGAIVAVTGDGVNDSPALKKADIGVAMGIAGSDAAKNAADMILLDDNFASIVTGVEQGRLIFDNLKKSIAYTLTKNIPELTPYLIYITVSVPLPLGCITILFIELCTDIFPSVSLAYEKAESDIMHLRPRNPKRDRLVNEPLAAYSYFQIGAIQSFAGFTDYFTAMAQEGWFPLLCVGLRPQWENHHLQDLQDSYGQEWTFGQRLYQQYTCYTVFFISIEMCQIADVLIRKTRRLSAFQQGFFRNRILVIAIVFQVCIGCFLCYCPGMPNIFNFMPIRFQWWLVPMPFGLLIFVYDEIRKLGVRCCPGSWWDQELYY
Chain of Proton Pump (H^+/K^+-ATPase) (P18434 whole entry partner): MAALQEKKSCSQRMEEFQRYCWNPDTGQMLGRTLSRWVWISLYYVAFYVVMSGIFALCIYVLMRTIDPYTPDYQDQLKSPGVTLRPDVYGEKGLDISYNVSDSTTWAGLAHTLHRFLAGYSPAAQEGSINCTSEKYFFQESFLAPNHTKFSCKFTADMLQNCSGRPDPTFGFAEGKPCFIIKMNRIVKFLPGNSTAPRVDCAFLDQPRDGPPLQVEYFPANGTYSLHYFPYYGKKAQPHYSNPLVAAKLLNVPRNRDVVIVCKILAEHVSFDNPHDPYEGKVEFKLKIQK
`C#CCn1c(C)c(C)c2cc(C(=O)N3CCCCC3)nc(N3CCc4ccccc4C3)c21` [Example 802, [7-(3,4-dihydro-1H-isoquinolin-2-yl)-2,3-dimethyl-1-(prop-2-ynyl)-1H-pyrrolo[2,3-c]pyridin-5-yl]-(piperidin-1-yl)-methanone hydrochloride] came in with an IC50 of 80 nM. `C=CCn1c(C)c(C)c2ccnc(N3CCc4ccccc4C3)c21` [Example 490, 1-allyl-7-(1,2,3,4-tetrahydroisoquinolin-2-yl)-2,3-dimethyl-1H-pyrrolo[2,3-c]pyridine nitrate] returned an IC50 of 3 nM. In turn, `Cc1c(C)n(CC2CC2)c2c(N3CCc4ccccc4C3)nc(C(=O)N3CCN(C)CC3)cc12` [Example 817, [1-cyclopropylmethyl-7-(3,4-dihydro-1H-isoquinolin-2-yl)-2,3-dimethyl-1H-pyrrolo[2,3-c]pyridin-5-yl]-(4-methylpiperazin-1-yl)-methanone hydrochloride] yielded an IC50 of 24 nM. Compound `CCN1CCN(C(=O)c2cc3c(C)c(C)n(CC4CC4)c3c(N3CCc4ccccc4C3)n2)CC1` [Example 818, [1-cyclopropylmethyl-7-(3,4-dihydro-1H-isoquinolin-2-yl)-2,3-dimethyl-1H-pyrrolo[2,3-c]pyridin-5-yl]-(4-ethylpiperazin-1-yl)-methanone hydrochloride] showed a half-maximal inhibitory concentration (IC50) of 34 nM. Then `CCn1c(C)c(C)c2cc(C(=O)N3CCCC3)nc(N3CCc4ccccc4C3)c21` [Example 803, [7-(3,4-dihydro-1H-isoquinolin-2-yl)-1-ethyl-2,3-dimethyl-1H-pyrrolo[2,3-c]pyridin-5-yl]-(pyrrolidin-1-yl)-methanone hydrochloride], with 35 nM. With `Cc1c(C)n(Cc2ccccc2)c2c(N3CCc4ccccc4C3)nc(C(=O)N3CCOCC3)cc12` [Example 764, [1-benzyl-7-(3,4-dihydro-1H-isoquinolin-2-yl)-2,3-dimethyl-1H-pyrrolo[2,3-c]pyridin-5-yl]-(morpholin-4-yl)-methanone] the figure was 44 nM; with “[7-(3,4-dihydro-1H-isoquinolin-2-yl)-1-(3-fluorobenzyl)-2,3-dimethyl-1H-pyrrolo[2,3-c]pyridin-5-yl]-methylamine hydrochloride [Example 888]”, 20 nM. The compound `Cc1c(C)n(Cc2cccc(F)c2)c2c(N3CCc4ccccc4C3)nc(C(=O)N3CCN(C)CC3)cc12` [Example 832, [7-(3,4-dihydro-1H-isoquinolin-2-yl)-1-(3-fluorobenzyl)-2,3-dimethyl-1H-pyrrolo[2,3-c]pyridin-5-yl]-(4-methylpiperazin-1-yl)-methanone hydrochloride] registered a half-maximal inhibitory concentration (IC50) of 31 nM. Consider `CCn1c(C)c(C)c2cc(C(=O)O)nc(N3CCc4ccccc4C3)c21` [Example 738, 7-(3,4-dihydro-1H-isoquinolin-2-yl)-1-ethyl-2,3-dimethyl-1H-pyrrolo[2,3-c]pyridin-5-carboxylic acid], for which the IC50 is 331 nM. `CCCn1c(C)c(C)c2cc(C#N)nc(N3CCc4ccccc4C3)c21` [Example 697, 7-(3,4-dihydro-1H-isoquinolin-2-yl)-2,3-dimethyl-1-propyl-1H-pyrrolo[2,3-c]pyridin-5-carbonitrile] gave an IC50 of 3200 nM. Compound `CCCn1c(C)c(C)c2ccnc(NCc3ccccc3C)c21` [Example 230, 2,3-dimethyl-7-(2-methylbenzylamino)-1-propyl-1H-pyrrolo[2,3-c]pyridine hydrochloride] registered a half-inhibitory concentration (IC50) of 92 nM.

`C=Cc1ccc(-c2nccc3c(C)c(C)n(Cc4ccc(C)cc4)c23)cc1` [Example 244, 2,3-dimethyl-1-(4-methylbenzyl)-7-(4-vinylphenyl)-1H-pyrrolo[2,3-c]pyridine hydrochloride]: the IC50 came to 90 nM. As to `COc1cccc(Cn2c(C)c(C)c3cc(C(=O)N4CCNCC4)nc(N4CCc5ccccc5C4)c32)c1` [Example 822, [7-(3,4-dihydro-1H-isoquinolin-2-yl)-1-(3-methoxybenzyl)-2,3-dimethyl-1H-pyrrolo[2,3-c]pyridin-5-yl]-(piperazin-1-yl)-methanone hydrochloride], the IC50 worked out at 23 nM. In the case of `C=CCn1c(C)c(C)c2ccnc(N3CCc4ccc(Cl)cc4C3C)c21` (stereo not drawn) [Example 531, 7-chloro-2-(1-allyl-2,3-dimethyl-1H-pyrrolo[2,3-c]pyridin-7-yl)-1-methyl-1,2,3,4-tetrahydroisoquinoline hydrochloride], the IC50 was 190 nM. With `Cc1[nH]c2c(N3CCc4ccccc4C3)nc(C=O)cc2c1C` [Example 862, 7-(3,4-dihydro-1H-isoquinolin-2-yl)-2,3-dimethyl-1H-pyrrolo[2,3-c]pyridin-5-carbaldehyde], it took 403 nM to reach half-maximal inhibition (IC50).

The compound `COCCn1c(C)c(C)c2ccnc(N3CCc4ccccc4C3C3CC3)c21` (stereo not drawn) [Example 571, 1-cyclopropyl-2-[1-(2-methoxyethyl)-2,3-dimethyl-1H-pyrrolo[2,3-c]pyridin-7-yl]-1,2,3,4-tetrahydroisoquinoline hydrochloride] yielded a half-maximal inhibitory concentration (IC50) of 470 nM. For `CCn1c(C)c(C)c2cc(C(=O)N3CCC(O)CC3)nc(N3CCc4ccccc4C3)c21` [Example 806, [7-(3,4-dihydro-1H-isoquinolin-2-yl)-1-ethyl-2,3-dimethyl-1H-pyrrolo[2,3-c]pyridin-5-yl]-(4-hydroxypiperidin-1-yl)-methanone hydrochloride], the half-maximal inhibitory concentration (IC50) was found to be 13 nM.

`Cc1c(C)n(Cc2cccc(F)c2)c2c(N3CCc4ccc(Cl)cc4C3C)nccc12` (stereo not drawn) [Example 539, 7-chloro-2-[1-(3-fluorobenzyl)-2,3-dimethyl-1H-pyrrolo[2,3-c]pyridin-7-yl]-1-methyl-1,2,3,4-tetrahydroisoquinoline hydrochloride]: the half-inhibitory concentration (IC50) is 250 nM. With `Cc1ccc(Cn2c(C)c(C)c3cc(C(=O)N4CCN(C)CC4)nc(N4CCc5ccccc5C4)c32)cc1` [Example 828, [7-(3,4-dihydro-1H-isoquinolin-2-yl)-1-(4-methylbenzyl)-2,3-dimethyl-1H-pyrrolo[2,3-c]pyridin-5-yl]-(4-methylpiperazin-1-yl)-methanone hydrochloride] the figure was 94 nM; with `Cc1c(C)n(Cc2ccc(F)cc2)c2c(N3CCc4ccccc4C3)nccc12` [Example 471, 1-(4-fluorobenzyl)-7-(1,2,3,4-tetrahydroisoquinolin-2-yl)-2,3-dimethyl-1H-pyrrolo[2,3-c]pyridine hydrochloride], 230 nM. Turning to `C=CCn1c(C)c(C)c2ccnc(N3CCc4ccccc4C3)c21` [Example 493, 1-allyl-7-(1,2,3,4-tetrahydroisoquinolin-2-yl)-2,3-dimethyl-1H-pyrrolo[2,3-c]pyridine benzenesulfonate], the half-inhibitory concentration (IC50) was found to be 4 nM.

Consider `Cc1c(C)n(Cc2cccc(F)c2)c2c(N3CCc4ccccc4C3)nc(CN3CCN(C)CC3)cc12` [Example 873, 2-[1-(3-fluorobenzyl)-2,3-dimethyl-5-(4-methylpiperazin-1-ylmethyl)-1H-pyrrolo[2,3-c]pyridin-7-yl]-1,2,3,4-tetrahydroisoquinoline hydrochloride], for which the IC50 was found to be 26 nM. Take `Cc1c(C)n(CC(C)C)c2c(CCc3ccccc3)nccc12` [Example 447, 1-isobutyl-2,3-dimethyl-7-phenethyl-1H-pyrrolo[2,3-c]pyridine hydrochloride]: the IC50 was 460 nM.

Regarding `Cc1ccc(Cn2c(C)c(C)c3ccnc(NCc4ccc(Cl)cc4)c32)cc1` [Example 221, 7-(4-chlorobenzylamino)-2,3-dimethyl-1-(4-methylbenzyl)-1H-pyrrolo[2,3-c]pyridine hydrochloride], the IC50 is 630 nM. With `Cc1c(C)n(Cc2ccccc2)c2c(N3CCc4ccccc4C3)nc(C(=O)N(C)C)cc12` [Example 771, 1-benzyl-7-(3,4-dihydro-1H-isoquinolin-2-yl)-2,3-dimethyl-N-dimethyl-1H-pyrrolo[2,3-c]pyridin-5-carboxamide hydrochloride] the figure was 36 nM; with `CCN1CCN(C(=O)c2cc3c(C)c(C)n(CC)c3c(N3CCc4ccccc4C3)n2)CC1` [Example 826, [7-(3,4-dihydro-1H-isoquinolin-2-yl)-1-ethyl-2,3-dimethyl-1H-pyrrolo[2,3-c]pyridin-5-yl]-(4-ethylpiperazin-1-yl)-methanone hydrochloride], 16 nM. Then `Cc1c(C)n(Cc2ccc(C(C)(C)C)cc2)c2c(-c3ccc4ccccc4c3)nccc12` [Example 406, 1-(4-tert-butylbenzyl)-2,3-dimethyl-7-(naphthalen-2-yl)-1H-pyrrolo[2,3-c]pyridine hydrochloride], with 189 nM; and `Cc1c(C)n(Cc2cccc(F)c2)c2c(CCc3ccccc3)nccc12` [Example 449, 1-(3-fluorobenzyl)-2,3-dimethyl-7-phenethyl-1H-pyrrolo[2,3-c]pyridine hydrochloride], with 87 nM; and `Cc1c(C)n(Cc2cccc(F)c2)c2c(N3CCc4ccccc4C3)nc(Cl)cc12` [Example 657, 5-chloro-[1-(3-fluorobenzyl)-7-(1,2,3,4-tetrahydroisoquinolin-2-yl)]-2,3-dimethyl-1H-pyrrolo[2,3-c]pyridine hydrochloride], with 240 nM.

`Cc1c(C)n(Cc2ccccc2)c2c(C=Cc3ccccc3)nccc12` [Example 418, 1-benzyl-2,3-dimethyl-7-styryl-1H-pyrrolo[2,3-c]pyridine hydrochloride]: the half-inhibitory concentration (IC50) was 290 nM.

The compound `CCn1c(C)c(C)c2ccnc(N3CCc4ccc(F)cc4C3C)c21` (stereo not drawn) [Example 543, 2-(1-ethyl-2,3-dimethyl-1H-pyrrolo[2,3-c]pyridin-7-yl)-7-fluoro-1-methyl-1,2,3,4-tetrahydroisoquinoline hydrochloride] registered a concentration for half-maximal inhibition (IC50) of 110 nM. Then `Cc1[nH]c2c(NCc3ccccc3)nccc2c1C` [Example 175, 7-benzylamino-2,3-dimethyl-1H-pyrrolo[2,3-c]pyridine hydrochloride], with 80 nM; and `C#CCn1c(C)c(C)c2ccnc(N3CCc4ccccc4C3)c21` [Example 506, 1-(prop-2-ynyl)-7-(1,2,3,4-tetrahydroisoquinolin-2-yl)-2,3-dimethyl-1H-pyrrolo[2,3-c]pyridine hydrochloride], with 69 nM.

Values taken from patent publication US7662832B2, “Pyrrolo[2,3-c]pyridine derivatives and processes for the preparation thereof” (priority 2004, dated 2010).
